Test results taken from patent US10246426B2, “Triazole compounds as T-type calcium channel blockers” (IDORSIA PHARMACEUTICALS LTD, priority 2014, dated 2019).
pIC50: −log10 of the molar value.

Molecular target: Cav3.2 (Homo sapiens, UniProt O95180)
Experiment: Calcium flux FLIPR assay, HEK293 cells recombinantly expressing Cav3.2
Type: cell-based
Settings: Cav3.2-channel, Ca2+ entry stimulated by 10 mM CaCl2
How it was run: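 Fluo-4-loaded HEK293 cells stably expressing Cav3.2, seeded overnight at 37 °C; compounds diluted in TEAC buffer (pH 7.2) and preincubated 3 min before Ca2+ entry triggered with CaCl2 at 10 mM final. Area under FLIPR fluorescence trace fitted sigmoidally; IC50 relative to vehicle signal.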

Sequence of Cav3.2 (O95180 whole entry, looked up): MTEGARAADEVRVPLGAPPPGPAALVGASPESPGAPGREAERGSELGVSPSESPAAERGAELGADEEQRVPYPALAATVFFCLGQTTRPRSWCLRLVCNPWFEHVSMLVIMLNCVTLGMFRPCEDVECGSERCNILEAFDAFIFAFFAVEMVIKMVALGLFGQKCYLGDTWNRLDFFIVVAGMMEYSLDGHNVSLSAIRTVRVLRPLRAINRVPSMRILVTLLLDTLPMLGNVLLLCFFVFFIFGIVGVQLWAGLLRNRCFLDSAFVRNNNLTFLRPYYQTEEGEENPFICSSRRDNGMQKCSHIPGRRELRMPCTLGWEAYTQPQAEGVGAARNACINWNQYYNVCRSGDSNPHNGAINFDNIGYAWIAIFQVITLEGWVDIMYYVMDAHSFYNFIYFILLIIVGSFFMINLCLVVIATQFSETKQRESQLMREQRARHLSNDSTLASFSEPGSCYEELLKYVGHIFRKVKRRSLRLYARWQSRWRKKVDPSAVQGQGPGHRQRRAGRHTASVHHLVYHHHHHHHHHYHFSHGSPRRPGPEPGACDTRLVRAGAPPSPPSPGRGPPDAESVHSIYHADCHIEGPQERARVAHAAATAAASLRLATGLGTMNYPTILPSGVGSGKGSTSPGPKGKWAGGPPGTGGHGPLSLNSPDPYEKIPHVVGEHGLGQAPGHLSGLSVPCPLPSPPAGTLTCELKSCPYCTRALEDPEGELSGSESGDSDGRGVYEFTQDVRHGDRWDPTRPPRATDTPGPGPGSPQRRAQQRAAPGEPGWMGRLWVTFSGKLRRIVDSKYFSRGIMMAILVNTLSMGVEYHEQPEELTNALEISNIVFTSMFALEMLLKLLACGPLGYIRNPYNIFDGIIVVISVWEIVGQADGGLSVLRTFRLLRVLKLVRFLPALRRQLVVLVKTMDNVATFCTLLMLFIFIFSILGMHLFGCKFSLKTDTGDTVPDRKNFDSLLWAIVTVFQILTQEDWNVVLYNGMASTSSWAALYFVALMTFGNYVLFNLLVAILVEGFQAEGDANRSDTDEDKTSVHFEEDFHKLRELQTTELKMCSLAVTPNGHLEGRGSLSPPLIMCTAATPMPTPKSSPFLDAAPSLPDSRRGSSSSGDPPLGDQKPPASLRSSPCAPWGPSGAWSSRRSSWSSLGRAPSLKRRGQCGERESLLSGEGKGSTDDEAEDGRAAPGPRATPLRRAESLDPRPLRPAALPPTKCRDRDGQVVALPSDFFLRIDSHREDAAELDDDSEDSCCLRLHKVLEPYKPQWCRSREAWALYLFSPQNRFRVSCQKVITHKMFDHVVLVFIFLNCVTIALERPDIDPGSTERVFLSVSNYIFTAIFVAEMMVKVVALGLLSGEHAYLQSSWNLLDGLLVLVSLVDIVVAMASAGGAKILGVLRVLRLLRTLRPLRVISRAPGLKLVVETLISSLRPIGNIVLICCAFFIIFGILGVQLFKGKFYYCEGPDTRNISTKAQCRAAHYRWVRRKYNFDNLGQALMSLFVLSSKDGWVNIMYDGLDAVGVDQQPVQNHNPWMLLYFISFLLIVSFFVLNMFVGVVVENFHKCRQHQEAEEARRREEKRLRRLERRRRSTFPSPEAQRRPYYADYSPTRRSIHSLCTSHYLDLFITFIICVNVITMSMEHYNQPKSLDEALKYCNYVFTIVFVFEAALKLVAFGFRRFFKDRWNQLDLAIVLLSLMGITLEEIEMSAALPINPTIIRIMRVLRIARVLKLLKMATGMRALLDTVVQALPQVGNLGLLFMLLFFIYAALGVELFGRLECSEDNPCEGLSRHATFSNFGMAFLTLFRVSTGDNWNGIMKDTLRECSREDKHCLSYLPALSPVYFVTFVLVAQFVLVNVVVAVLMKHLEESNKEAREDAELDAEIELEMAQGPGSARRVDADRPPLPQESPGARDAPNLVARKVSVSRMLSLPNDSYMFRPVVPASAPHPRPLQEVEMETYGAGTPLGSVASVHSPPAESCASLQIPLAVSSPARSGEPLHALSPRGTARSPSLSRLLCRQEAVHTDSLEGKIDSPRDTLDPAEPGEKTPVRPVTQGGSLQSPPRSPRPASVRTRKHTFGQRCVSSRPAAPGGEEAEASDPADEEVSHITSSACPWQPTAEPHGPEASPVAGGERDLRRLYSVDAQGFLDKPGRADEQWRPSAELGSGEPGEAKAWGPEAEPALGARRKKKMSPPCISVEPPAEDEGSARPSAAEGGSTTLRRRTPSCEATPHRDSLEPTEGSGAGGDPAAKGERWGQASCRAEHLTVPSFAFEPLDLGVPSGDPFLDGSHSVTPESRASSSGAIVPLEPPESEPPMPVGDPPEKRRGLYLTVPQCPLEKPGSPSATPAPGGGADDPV

pIC50 | Structure (SMILES)
6.22 | COc1ccc(Cn2ncc(NC(=O)Cc3ccc4c(cnn4C)c3)n2)cc1C#N [Example 208, N-[2-(3-Cyano-4-methoxy-benzyl)-2H-[1,2,3]triazol-4-yl]-2-(1-methyl-1H-indazol-5-yl)-acetamide]
6.59 | COc1cc(Cn2ncc(NC(=O)Cc3ccc4c(c3)c(C)nn4C)n2)cc(F)c1F [Example 210, N-[2-(3,4-Difluoro-5-methoxy-benzyl)-2H-[1,2,3]triazol-4-yl]-2-(1,3-dimethyl-1H-indazol-5-yl)-acetamide]
7.09 | Cc1ccc(Cn2ncc(NC(=O)Cc3ccc(N4CCC(F)(F)C4)nc3)n2)cc1C#N [Example 211, N-[2-(3-Cyano-4-methyl-benzyl)-2H-[1,2,3]triazol-4-yl]-2-[6-(3,3-difluoro-pyrrolidin-1-yl)-pyridin-3-yl]-acetamide]
6.64 | COc1cc(Cn2ncc(NC(=O)Cc3ccc4c(cnn4C)c3)n2)cc(F)c1F [Example 212, N-[2-(3,4-Difluoro-5-methoxy-benzyl)-2H-[1,2,3]triazol-4-yl]-2-(1-methyl-1H-indazol-5-yl)-acetamide]
6.92 | Cc1ccc(Cn2ncc(NC(=O)Cc3ccc(N4CCCC4)nc3)n2)cc1C#N [Example 213, N-[2-(3-Cyano-4-methyl-benzyl)-2H-[1,2,3]triazol-4-yl]-2-(6-pyrrolidin-1-yl-pyridin-3-yl)-acetamide]
6.60 | COc1ccc(Cn2ncc(NC(=O)Cc3ccc(C4(F)COC4)cc3)n2)cc1C#N [Example 214, N-[2-(3-Cyano-4-methoxy-benzyl)-2H-[1,2,3]triazol-4-yl]-2-[4-(3-fluoro-oxetan-3-yl)-phenyl]-acetamide]
6.19 | Cc1ccc(Cn2ncc(NC(=O)Cc3ccc4cnn(C)c4c3)n2)cc1C#N [Example 215, N-[2-(3-Cyano-4-methyl-benzyl)-2H-[1,2,3]triazol-4-yl]-2-(1-methyl-1H-indazol-6-yl)-acetamide]
7.13 | Cc1ccc(Cn2ncc(NC(=O)Cc3ccc(C(C)C)cc3)n2)cc1C#N [Example 216, N-[2-(3-Cyano-4-methyl-benzyl)-2H-[1,2,3]triazol-4-yl]-2-(4-isopropyl-phenyl)-acetamide]
6.80 | Cc1ccc(Cn2ncc(NC(=O)Cc3ccc(C(C)(C)C)cc3)n2)cc1C#N [Example 217, 2-(4-tert-Butyl-phenyl)-N-[2-(3-cyano-4-methyl-benzyl)-2H-[1,2,3]triazol-4-yl]-acetamide]
6.23 | COc1cc(Cn2ncc(NC(=O)Cc3ccc(C(C)(C)C)cc3)n2)cc(F)c1F [Example 218, 2-(4-tert-Butyl-phenyl)-N-[2-(3,4-difluoro-5-methoxy-benzyl)-2H-[1,2,3]triazol-4-yl]-acetamide]
6.92 | COc1cc(Cn2ncc(NC(=O)Cc3ccc(N4CCC(F)(F)C4)nc3)n2)cc(F)c1F [Example 219, N-[2-(3,4-Difluoro-5-methoxy-benzyl)-2H-[1,2,3]triazol-4-yl]-2-[6-(3,3-difluoro-pyrrolidin-1-yl)-pyridin-3-yl]-acetamide]
6.72 | CCn1ncc2cc(CC(=O)Nc3cnn(Cc4cc(F)c(F)c(OC)c4)n3)ccc21 [Example 220, N-[2-(3,4-Difluoro-5-methoxy-benzyl)-2H-[1,2,3]triazol-4-yl]-2-(1-ethyl-1H-indazol-5-yl)-acetamide]
6.80 | COc1cc(Cn2ncc(NC(=O)Cc3ccc(N4CCCC4)nc3)n2)cc(F)c1F [Example 221, N-[2-(3,4-Difluoro-5-methoxy-benzyl)-2H-[1,2,3]triazol-4-yl]-2-(6-pyrrolidin-1-yl-pyridin-3-yl)-acetamide]
6.52 | COc1cc(Cn2ncc(NC(=O)Cc3ccc(C(C)C)cc3)n2)cc(F)c1F [Example 222, N-[2-(3,4-Difluoro-5-methoxy-benzyl)-2H-[1,2,3]triazol-4-yl]-2-(4-isopropyl-phenyl)-acetamide]
6.72 | COc1cc(Cn2ncc(NC(=O)Cc3ccc(C4(F)COC4)cc3)n2)cc(F)c1F [Example 224, N-[2-(3,4-Difluoro-5-methoxy-benzyl)-2H-[1,2,3]triazol-4-yl]-2-[4-(3-fluoro-oxetan-3-yl)-phenyl]-acetamide]

Continued, compound first:

Structure (SMILES) | pIC50
Cc1cc(CC(=O)Nc2cnn(Cc3ccc(C#N)c(F)c3)n2)ccc1OCC(F)(F)F [Example 199, N-[2-(4-Cyano-3-fluoro-benzyl)-2H-[1,2,3]triazol-4-yl]-2-[3-methyl-4-(2,2,2-trifluoro-ethoxy)-phenyl]-acetamide] | 7.77
Cc1ccc(Cn2ncc(NC(=O)Cc3ccc(OCC4(F)COC4)cc3)n2)cc1C#N [Example 200, N-[2-(3-Cyano-4-methyl-benzyl)-2H-[1,2,3]triazol-4-yl]-2-[4-(3-fluoro-oxetan-3-ylmethoxy)-phenyl]-acetamide] | 6.39
Cc1ccc(Cn2ncc(NC(=O)Cc3ccc(C4(F)COC4)cc3)n2)cc1C#N [Example 201, N-[2-(3-Cyano-4-methyl-benzyl)-2H-[1,2,3]triazol-4-yl]-2-[4-(3-fluoro-oxetan-3-yl)-phenyl]-acetamide] | 6.51
COc1ccc(Cn2ncc(NC(=O)Cc3ccc(C(C)(C)C)cc3)n2)cc1C#N [Example 202, 2-(4-tert-Butyl-phenyl)-N-[2-(3-cyano-4-methoxy-benzyl)-2H-[1,2,3]triazol-4-yl]-acetamide] | 6.49
COc1ccc(Cn2ncc(NC(=O)Cc3ccc(C4(C(F)(F)F)CC4)cc3)n2)cc1C#N [Example 203, N-[2-(3-Cyano-4-methoxy-benzyl)-2H-[1,2,3]triazol-4-yl]-2-[4-(1-trifluoromethyl-cyclopropyl)-phenyl]-acetamide] | 6.66
Cc1ccc(Cn2ncc(NC(=O)Cc3ccc4c(cnn4C)c3)n2)cc1C#N [Example 204, N-[2-(3-Cyano-4-methyl-benzyl)-2H-[1,2,3]triazol-4-yl]-2-(1-methyl-1H-indazol-5-yl)-acetamide] | 6.55
COc1ccc(Cn2ncc(NC(=O)Cc3ccc(C(C)C)cc3)n2)cc1C#N [Example 205, N-[2-(3-Cyano-4-methoxy-benzyl)-2H-[1,2,3]triazol-4-yl]-2-(4-isopropyl-phenyl)-acetamide] | 6.80
COC1(c2ccc(CC(=O)Nc3cnn(Cc4ccc(C)c(C#N)c4)n3)cc2)COC1 [Example 206, N-[2-(3-Cyano-4-methyl-benzyl)-2H-[1,2,3]triazol-4-yl]-2-[4-(3-methoxy-oxetan-3-yl)-phenyl]-acetamide] | 6.05
COc1ccc(Cn2ncc(NC(=O)Cc3ccc(N4CCC(F)(F)C4)nc3)n2)cc1C#N [Example 207, N-[2-(3-Cyano-4-methoxy-benzyl)-2H-[1,2,3]triazol-4-yl]-2-[6-(3,3-difluoro-pyrrolidin-1-yl)-pyridin-3-yl]-acetamide] | 6.89
Cc1ccc(Cn2ncc(NC(=O)Cc3ccc(OC4CC(F)(F)C4)cc3)n2)cc1C#N [Example 209, N-[2-(3-Cyano-4-methyl-benzyl)-2H-[1,2,3]triazol-4-yl]-2-[4-(3,3-difluoro-cyclobutoxy)-phenyl]-acetamide] | 6.74
COc1ccc(Cn2ncc(NC(=O)Cc3ccc(OC4CC(F)(F)C4)cc3)n2)cc1C#N [Example 223, N-[2-(3-Cyano-4-methoxy-benzyl)-2H-[1,2,3]triazol-4-yl]-2-[4-(3,3-difluoro-cyclobutoxy)-phenyl]-acetamide] | 6.92
